88 compounds from a melting point compilation (Tetko et al.; mined from patent text by program, amines drawn as free bases though some values may be those of a salt) can be followed below.

SMILES strings stand for the structures.

`CN1C(=O)N(CC(=O)O)C(=O)C1(C)C`: the melting point (commonly the temperature, or range, at which the solid turns liquid) lay in the range of 130 to 132 °C.

`CCC(=O)N1N=C(c2ccc([N+](=O)[O-])c(C)c2)c2cc3c(cc2CC1C)OCO3` (stereo not drawn) gave a melting point of 172 to 175 °C. For `CCCCCCCCOCCCN=C=O` the value was 74 to 76 °C; for `CCOc1cc2nc(NC)nc(-c3cccc(Br)c3)c2cc1OCC`, 130 to 132 °C. Under `CSc1ccc(-c2cccc(-c3nc(C(C)C)[nH]c3-c3cccc(C)n3)c2)cc1` stands 80 to 82 °C. Under `CCOC(=O)NCC(=O)c1ccc(O)cc1` stands 137 to 140 °C; under `CCn1c(-c2ccc(OC)c(OC)c2)cc(=O)n(C)c1=O`, 110 to 120 °C; under `CCOc1cccc2c1OC(C(F)(F)F)C(C(=O)O)=C2` (stereo not drawn), 159 to 161 °C.

Regarding `CN1C(=O)C2CCCN2Cc2ccccc21` (stereo not drawn), the melting point was 120 to 122 °C. On to `COc1ccc(S(=O)(=O)n2ccc3ccnc(-c4ccco4)c32)cc1`, for which the melting point is 127 to 130 °C. Under `O=C(c1ccccc1)C(c1ccc(Cl)cc1)c1c(Cl)cc(-n2ncc(=O)[nH]c2=O)cc1Cl` (stereo not drawn) stands 143 °C. Under `CCOC(=O)c1cnc(-c2ccccc2OCC2CC2)[nH]c1=O` stands 104 to 105 °C. `COc1ccc(NC(=O)CCCC(O)c2ccc(OC)cc2)cc1` (stereo not drawn) yielded a melting point of 118 to 120 °C. Under `CN(C)Cc1ccc2cc(NC(=O)c3ccc(-c4ccccc4)cc3)ccc2n1` stands 191 to 194 °C; under `CC(O)C#CC1(O)C(C)C=CCC1(C)C` (stereo not drawn), 101 to 104 °C; under `O=S(=O)(c1ccc(Cl)cc1)N1CCCC1c1cccc(Cl)c1` (racemic), 99 °C.

Consider `Cn1cc(C2=C(c3cc[nH]c3)C(=O)NC2=O)c2ccccc21`, for which the melting point was in the range of 240 to 241 °C.

Compound `O=C(Nc1ccc(N2CC3CC3C2)nc1)c1cc2cc(F)cnc2n1Cc1cccc(F)c1` (stereo not drawn) came in with a melting point of 222 to 224 °C. Under `COc1cccc(C23CCN(Cc4ccccc4)C(CC(=O)C2)C3)c1` (stereo not drawn) stands 108 to 109 °C; under `Cc1c2c(c(Br)c(C(C)C)c1OCc1ccccc1)OC(C)(C)C2`, 156 °C. Compound `CCOC(=O)c1ccc(/C=C(/COCc2ccc(OC)cc2)Cn2ccnc2)c(Cl)c1` showed a melting point of 41 to 42 °C. Under `C#CCN1CCCc2ccc(OC(=O)Nc3c(C)cccc3C(C)C)cc21` stands 120 °C; under `CN(C)S(=O)(=O)n1cc(-c2ccccc2[N+](=O)[O-])nc1C#N`, 111 to 114 °C. Compound `O=Cc1cccc(C=O)c1O` displayed a melting point of 122 to 125 °C. `CC(C)Cc1ccc(C(F)C(=O)O)cc1` (stereo not drawn) gave a melting point of 64 to 66 °C.

`CC1(C)NCCc2c1oc1cc(I)ccc21` yielded a melting point of 97 to 98 °C.

`CCCCc1cn(-c2c(C)cc(C(C)(C)C)cc2C)c(=O)n1Cc1ccc(-c2ccccc2-c2nnn[nH]2)cc1` returned a melting point of 134 to 135 °C. For `COC(=O)c1nnc(Cl)cc1NCc1ccc(OC)c(Cl)c1` the value was 162 to 163 °C; for `CCN1c2ccccc2CC1CNC(=N)N` (stereo not drawn), 199 °C; for `CCCCCCCCCCCCc1c([N+](=O)[O-])ncn1C`, 56 to 59 °C. Under `CCOC(=O)Cn1c(-c2ccc(OC)c(OC)c2)cc(=Nc2c(C)cc(C)cc2C)n(C)c1=O` stands 112 to 113 °C; under `CN(c1cc(Cl)ccc1C(=O)O)S(C)(=O)=O`, 161 to 164 °C. Under `COC(=O)C(=CNc1ccc(F)c(F)c1OCC(C)O)C(=O)OC` (stereo not drawn) stands 107 to 108 °C. Regarding `Cc1nc(C(C)c2ccccc2)c2c(c1O)COC2` (stereo not drawn), the melting point came to 163 °C.

`CCCCCCC(C(=O)O)n1cnc2c(NC(=O)c3ccccc3-c3nn[nH]n3)cccc21` (stereo not drawn): the melting point was in the range of 130 to 134 °C.

Turning to `CC(C)C[C@H](NC(=O)OCc1ccccc1)C(=O)NC(C)(C)C(=O)CSCc1ccco1`, the melting point was in the range of 80 to 82 °C. Under `CCOC(=O)C(C)N1c2ccccc2Sc2ccc(C#N)cc21` (racemic) stands 117 to 118 °C; under `CC(C)(CNc1ccc(C2=NNC(=O)CC2)cc1)NCC(O)COc1ccccc1C#N` (stereo not drawn), 126 to 128 °C. For `CC(C)=CCOC(C)C1CCC2=C3C=CC4C(C)(C)C(OC(=O)CCC(=O)O)CCC4(C)C3CCC21C` (stereo not drawn) the value was 96 to 99 °C. As to `CCCCC(C(=O)OCC)c1ccc(N2Cc3ccccc3C2=N)cc1` (stereo not drawn), the melting point fell in the range of 140 to 142 °C.

For the compound `COc1ccc(C(=O)Nc2c(C)c(C)c3oc(C)c(-c4ccc(F)cc4)c3c2C)cc1`, the melting point lay within 225 to 227 °C. `O=C1c2ccccc2-c2ccc(-c3nc(COc4ccc(CCCn5ccnc5)cc4)co3)cc21` yielded a melting point of 153 to 154 °C. For `CCOC(=O)c1nn(-c2ccc(C)cc2)nc1C` the value was 47 to 48 °C; for `Cn1nc2c(-c3ccc(Cl)cc3Cl)cccc2c1CCc1ncn[nH]1`, 92 to 116 °C.

As for `O=C(CCCN1CCC2(CC(O)c3c(Cl)cccc32)C1)c1ccc(F)cc1` (stereo not drawn), the melting point was in the range of 161 to 163 °C. For `COCCC(=O)Nc1cccc(-c2cccc3cc(Cc4cccc(C(F)(F)F)c4)sc23)c1` the value was 102 to 103 °C; for `Nc1cc(C(=O)OCc2ccccc2)ccc1OCc1ccccc1`, 79 to 81 °C.

For `COc1ccc2oc(-c3nc(C(C)(C)C)cs3)cc2c1`, the melting point lay within 80 to 81 °C. For `CC(C)CCN1C(=O)C(NC(=O)Oc2ccccc2)C(=O)N(c2ccccc2)c2ccc(Cl)cc21` (stereo not drawn) the value was 190 to 195 °C.

As for `CNC(=O)N1CCN(C(=O)Cc2ccc(Cl)c(Cl)c2)C(CN2CCC(O)C2)C1` (stereo not drawn), the melting point is 57 °C.

Turning to `CCCCCCCCCCCCCCOc1ccc(NC(=O)Nc2cccc(CO)c2)cc1`, the melting point is 150 to 158 °C. Regarding `O=[N+]([O-])c1cccc(-c2cnc3[nH]c4ccccc4c3c2)c1`, the melting point is above 220 °C. In turn, `N#CCNS(=O)(=O)c1ccccc1` yielded a melting point of 81 to 83 °C. Under `FC(F)c1nc2ccccc2n1-c1nc(Nc2cccnn2)nc(N2CCOCC2)n1` stands 271 to 273 °C; under `CCCCc1nn(Cc2ccc(C#N)cc2)c2ccccc2c1=O`, 180 °C; under `Cc1nnc(-c2ccc3occ(-c4ccccc4Cl)c3c2)o1`, 83 to 84 °C. The compound `CC1NC(=NC2CNCCO2)N(CCO)C1C` (stereo not drawn) showed a melting point of 108 to 109 °C.

As for `COC(=O)CCSSN=C1C(=O)N(C)C(=O)N1c1ccccc1F`, the melting point was in the range of 81 to 84.5 °C.

Take `Cc1ccc(S(=O)(=O)N(Cc2cc(C(C)(C)C)c(O)c(C(C)(C)C)c2)c2ccc(Cl)nc2)cc1`: the melting point is 152 to 153 °C. In turn, `COC(=O)CCCc1nc(-c2ccc(C)cc2)oc1C(F)(F)F` displayed a melting point of 44.5 to 45 °C.

`CCOC(=O)c1c(N=Cc2cccs2)sc(N=Cc2ccc([N+](=O)[O-])s2)c1C(=O)OCC` had a melting point of 220 to 222 °C.

In turn, `Cc1ccc2c(CC(=O)O)c(C(=O)c3ccc(Cl)cc3)[nH]c2c1` registered a melting point of 193 to 195 °C. For `CC(=O)c1ccc2ccc(C(=O)O)cc2c1` the value was 224 to 228 °C. For `CN(C)C(=O)Nc1ccc(S(=O)(=O)CCc2ccccc2)c(Cl)c1` the value was 136 to 138 °C; for `COc1ccc(C(=O)Nc2ccccc2C(=O)NCCCC(=O)O)c(O)c1`, 201 to 203 °C; for `CC(C)OC(=O)Cn1c(=O)n(C)c(=O)n(-c2cc(N=c3sc(=O)n4n3CCCC4)c(F)cc2Cl)c1=O`, 97 to 107 °C.

The compound `CCN(CC)S(=O)(=O)c1nc2ccc([N+](=O)[O-])cc2n1CC` registered a melting point of 90 to 91 °C.

`Cc1c(S(C)(=O)=O)ccc(C(=O)C2SCCCC2=O)c1Cl` (stereo not drawn) showed a melting point of 142 to 144 °C. Under `O=C(C=Cc1ccccc1)CC(=O)C=Cc1ccccc1` stands 138 °C; under `COc1cc2c(cc1OC)[C@@H]1CCCC[C@@H]1N=C2c1ccc(C(=O)OCC2CC2)cc1` (racemic), 147 to 148 °C; under `CCOC(=O)N1CCC(=C2c3ccccc3CCn3c(C(=O)O)cnc32)CC1`, 182 °C. For `COc1ccc(C(=O)Nc2ccccc2)cc1Nc1cccc(NC(C)=O)c1` the value was 202 to 203 °C; for `O=C(O)C#CC(O)(c1ccc(OCc2ccc3ccccc3n2)cc1)c1ccc(OCc2ccc3ccccc3n2)cc1`, 169 to 172 °C; for `CCSc1cn(C)cc(-c2ccc(Cl)c(C(F)(F)F)c2)c1=O`, 115 to 116 °C. Under `Cn1cncc1Cn1nnnc1-c1cccc(Cl)c1Cl` stands 166 to 168 °C. Consider `NC(=O)c1ccc2[nH]cc(CCCCN3CC=C(c4ccccc4)CC3)c2c1`, for which the melting point lay in the range of 200 to 205 °C. `CN1CCN(C(=O)C(c2ccc(Cl)cc2)c2c(Cl)cc(-n3ncc(=O)[nH]c3=O)cc2Cl)CC1` (stereo not drawn) yielded a melting point of 262 °C. For the compound `Cc1cc(C(=O)N2Cc3cccn3Cc3ccccc32)ccc1C1=CC(=O)CCC1`, the melting point lay in the range of 176 to 177 °C. For `CC(=O)Oc1ccc(-c2c(CBr)c3ccc(F)cc3oc2=O)c(OC(C)=O)c1` the value was 230 to 231 °C; for `Clc1ccc(OCc2ccccc2)c(OCC2CO2)c1Cl` (stereo not drawn), 59 to 61 °C. For `CC1c2ccccc2-c2ccccc2N1S(=O)(=O)c1ccc(O)c(CO)c1` (stereo not drawn) the value was 182 to 184 °C; for `Cc1c(-c2ccc(OCc3ccccc3)cc2)n(Cc2ccc(OCCN3CCCCCC3)cc2)c2ccc(OCc3ccccc3)cc12`, 106 to 107 °C; for `C#CCN(C)Cc1nc2ccc(OC(F)(F)F)cc2s1`, 117 to 120 °C. For `COc1cc(CO)c(OC)c2ccccc12`, the melting point is 63 to 66 °C. Consider `CCCc1cc(NC(=S)N2CCN(c3cc(OC)cc(OC)c3)CC2)c(OC)nc1C`, for which the melting point was 143 to 144 °C.

`NC(=O)c1cccc(-c2ccc3nnn(Cc4ccc5ncccc5c4)c3n2)c1` yielded a melting point of 263 to 265 °C. `CCCN(CCCc1c[nH]c2ccc(F)cc12)C1COc2c(C(N)=O)ccc(F)c2C1` (stereo not drawn) showed a melting point of 123 °C. Under `COC(=O)c1ccc(OCCOc2ccccc2)cc1` stands 92 to 93 °C.
